Our source for the IC50 values is patent US8486964B2, “Fused pyrrolidino-cyclopropane derivatives as selective 11-beta-hydroxysteroid dehydrogenase type 1 inhibitors” (Merck Patent GmbH, priority 2009, dated 2013).

What all share (assay type): biochemical
One test has as its target mouse 11-β-HSD-1 (Mus musculus (Mouse), UniProt P50172). The test can be described thus: Inhibition of 11-β-HSD-1 enzyme assay (HTRF cortisol), mice liver microsome fractions. Conditions: cortisone/NADPH 200 nM/200 μM, 150 minutes at 37° C. The protocol:
(§1) Human recombinant 11-beta-hydroxysteroid dehydrogenase type 1 (11-β-HSD-1) enzyme was expressed in E. coli. Rat and mice liver microsome fractions were purchased from TEBU.
(§2) The 11-β-HSD-1 enzyme assay was carried out in 96 well microtiter plates in a total volume of 100 μl containing 30 mM Hepes buffer, pH 7.4 with 1 mM EDTA, substrate mixture cortisone/NADPH (200 nM/200 μM), G-6-P (1 mM) and inhibitors in serial dilutions. Reactions were initiated by addition of 10 μl 11-β-HSD-1 (3 μg) from E. coli, either as microsome fractions from rat and mice liver (2.5 μg). Following mixing, the plates were shaken for 150 minutes at 37° C. The reactions were terminated with 10 μl Acid-18beta glycyrrhetinic stop solution. Determinations of cortisol levels in 11-β-HSD-1 preparations were monitored by HTRF (HTRF cortisol assay from Cis bio international).
Background: In TR-FRET formats the signal depends on donor and acceptor labels being close together.

A further test concerns the target rat 11-β-HSD-1 (Rattus norvegicus (Rat), UniProt P16232). The test can be described thus: Inhibition of 11-β-HSD-1 enzyme assay (HTRF cortisol), rat liver microsome fractions. Conditions: cortisone/NADPH 200 nM/200 μM, 150 minutes at 37° C. The protocol: as §1, §2
The next test deals with human 11-β-HSD-1 (Homo sapiens (Human), UniProt P28845). In words: Inhibition of 11-β-HSD-1 enzyme assay (HTRF cortisol), human recombinant enzyme. Conditions: human recombinant enzyme expressed in E. coli; cortisone/NADPH 200 nM/200 μM; 150 minutes at 37° C. How it is done: as §1, §2
human 11-β-HSD-1, sequence (P28845 whole entry): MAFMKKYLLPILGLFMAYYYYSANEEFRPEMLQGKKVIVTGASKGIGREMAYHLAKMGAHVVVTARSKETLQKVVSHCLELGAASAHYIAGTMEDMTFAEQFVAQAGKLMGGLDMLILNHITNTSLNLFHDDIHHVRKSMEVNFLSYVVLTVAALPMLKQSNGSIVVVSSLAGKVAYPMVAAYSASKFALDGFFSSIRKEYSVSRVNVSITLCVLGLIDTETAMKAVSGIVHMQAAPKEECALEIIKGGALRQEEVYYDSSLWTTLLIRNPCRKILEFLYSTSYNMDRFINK

rat 11-β-HSD-1, sequence (P16232 whole entry): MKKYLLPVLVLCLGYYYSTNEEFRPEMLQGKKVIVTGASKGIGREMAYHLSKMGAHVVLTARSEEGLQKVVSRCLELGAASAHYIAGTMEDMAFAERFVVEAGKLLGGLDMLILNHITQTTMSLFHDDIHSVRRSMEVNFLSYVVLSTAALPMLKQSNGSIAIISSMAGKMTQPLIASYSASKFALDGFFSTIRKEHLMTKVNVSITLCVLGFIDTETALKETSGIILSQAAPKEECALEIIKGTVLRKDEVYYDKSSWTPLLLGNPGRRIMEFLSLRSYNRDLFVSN
mouse 11-β-HSD-1, sequence (P50172 whole entry): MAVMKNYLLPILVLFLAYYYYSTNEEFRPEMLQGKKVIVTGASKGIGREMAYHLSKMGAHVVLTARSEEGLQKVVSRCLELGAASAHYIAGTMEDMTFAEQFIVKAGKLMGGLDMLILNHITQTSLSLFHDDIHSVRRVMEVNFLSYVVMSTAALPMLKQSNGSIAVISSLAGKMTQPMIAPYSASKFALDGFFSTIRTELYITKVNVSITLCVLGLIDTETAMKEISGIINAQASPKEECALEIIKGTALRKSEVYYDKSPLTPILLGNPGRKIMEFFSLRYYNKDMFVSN

For orientation: IC50 means the concentration that gives 50% inhibition. As for `O=C(N1CCC2(c3c[nH]c4ncccc34)CC12)C1(c2ccc(Cl)cc2)CC1` (stereo not drawn) [Compound 2, 3-(2-{[1-(4-chlorophenyl)cyclopropyl]carbonyl}-2-azabicyclo[3.1.0]hex-5-yl)-1H-pyrrolo[2,3-b]pyridine], the figures for the IC50 at mouse 11-β-HSD-1, at rat 11-β-HSD-1 and at human 11-β-HSD-1 were 1540 nM, 1290 nM and 22 nM, respectively.
